Here are results for three molecules from PMC6201685 (Biochemistry, 2016).

Data set [1] concerns the target T1, Rv2671 (Mycobacterium tuberculosis, UniProt P71968). The data set can be described thus: X-ray cocrystal structure. It counts as biochemical.
Data set [2] deals with Nc1nc2c(c(=O)[nH]1)N=C(CNc1ccc(C(=O)N[C@@H](CCC(=O)O)C(=O)O)cc1)CN2. Nature of the data set: purified protein.
Data set [3] relates to Nc1nc2c(c(=O)[nH]1)N=C(CNc1ccc(C(=O)O)cc1)CN2. Nature of the data set: purified protein.
In data set [4] the target is T1, Rv2671. It counts as biochemical.

What is called IC50 is the concentration at which inhibition is half-maximal. Consider `COc1cc(NCc2ccc3nc(N)nc(N)c3c2C)cc(OC)c1OC` [TMQ, trimetrexate], for which, at Rv2671 [1], the IC50 was determined as 280 ± 20 nM.
Usually Km stands for the concentration of substrate that gives half-maximal velocity. In the case of “Rv2671 (Mycobacterium tuberculosis H37Rv)”, the Km was 136 ± 32 µM in data set [2] and 180.2 ± 25.5 µM in data set [3].
With `NC(=O)C1=CN([C@@H]2O[C@H](COP(=O)(O)OP(=O)(O)OC[C@H]3O[C@@H](n4cnc5c(N)ncnc54)[C@H](OP(=O)(O)O)[C@@H]3O)[C@@H](O)[C@H]2O)C=CC1` [NADPH], on Rv2671 [4], the “cosubstrate in DHF reduction assay with purified enzyme (340 nm, HPLC)” value is “Tetrahydrofolate, the product of the reaction, was observed by HPLC spectrometry after the addition of DHF and NADPH to Rv2671”.
